Results reported in patent US10085450B2, “Tetrazolinone compound and use thereof” (SUMITOMO CHEMICAL COMPANY, LIMITED, priority 2013, dated 2018).

Assays:
[1] = test system: common house mosquito (Culex pipiens pallens); experiment: whole plant or invertebrate; conditions: 24 h
Experimental: The test chemical solution (0.7 mL) was added to 100 mL of deionized water to thereby adjust the concentration of the active ingredient to 3.5 ppm. Twenty (20) heads of last instar larvae of common house mosquito (Culex pipiens pallens) were released in the solution. After 1 day, the number of the dead insects was counted.
Mortality was determined by the following equation. Mortality (%)=(number of dead insects/number of tested insects)×100

[2] = test system: rice blast fungus (Magnaporthe grisea); format: in vivo; conditions: 500 ppm water dilution sprayed on rice (NIHONBARE); contact with infected rice seedling for 6 days
[3] = test system: tomato late blight fungus (Phytophthora infestans); format: in vivo; conditions: 500 ppm water dilution sprayed on tomato (PATIO) seedling; spores inoculated after air-drying
[4] = test system: diamondback moth (Plutella xylostella); experiment: Test Example 20: diamondback moth larvae mortality on sprayed cabbage; format: in vivo; conditions: 120 h
Experimental: Cabbage (cultivar: GREEN BALL) was sowed and grown in a polyethylene cup until the third to fourth true leaf was developed. The test chemical solution was sprayed over the cabbage at a rate of 20 mL per cup. After drying the chemical solution, the cabbage cut from the base was disposed in a polyethylene cup (5.5 cm in diameter) with a filter paper laid on the bottom. Five (5) heads of third-instar larvae of diamondback moth (Plutella xylostella) were released and then a lid was put on the cup. After storage at 25° C. for 5 days, the number of the surviving insects was counted and mortality was calculated by the following equation.

`Cc1cccc(-n2nnn(C)c2=O)c1COc1nn(C)c(-c2ccc(Cl)cc2)c1C` [present compound 29, 1-(2-{[1,4-dimethyl-5-(4-chlorophenyl)-1H-pyrazol-3-yloxy]methyl}-3-methylphenyl)-4-methyl-1,4-dihydrotetrazol-5-one] was tested, and the mortality at 3.5 ppm [1] was 95%.

For `Cc1cccc(-n2nnn(C)c2=O)c1COc1c(C)c(-c2ccccc2)nn1C` [present compound 8], the “lesion areas on the treated plant with respect to the lesion area on the non-treated plant” value [2] was at most 30% and the “area of lesion spots on the treated plant relative to that on an untreated plant” value [3] was at most 30%.

`Cc1cccc(-n2nnn(C)c2=O)c1COc1cc(-c2ccc(Cl)cc2)nn1C` [present compound 4] showed a mortality at 500 ppm [4] of at least 80%.

`Cc1cccc(-n2nnn(C)c2=O)c1COc1csc(-c2ccccc2)n1` [present compound 10] showed a mortality at 500 ppm [4] of at least 80%.

`Cc1cccc(-n2nnn(C)c2=O)c1COc1ccc(-c2ccc(Cl)cc2)s1` [present compound 15, 1-{2-[5-(4-chlorophenyl)thiophen-2-yloxymethyl]-3-methylphenyl}-4-methyl-1,4-dihydrotetrazol-5-one] gave a mortality at 3.5 ppm [1] of 95%.
